Assay results taken from PubChem BioAssay AID248 (DTP/NCI, 2004).
Toxic doses and inconclusive results are not listed. No stated cut-off is given here; in the data, active means T/C of 150% or more; inactive means T/C below 125%.

Tested on: L1210 leukemia ip in BDF1 mice, survival T/C
Experiment: NCI In Vivo Anticancer Drug Screen. Data for tumor model L1210 Leukemia (intraperitoneal) in B6D2F1 (BDF1) mice
Settings: endpoint: mean survival time, higher = longer survival
How it was run: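 Tumor cells were implanted, animals were treated, and survival was followed. The result divides the treated measurement by the vehicle-control measurement.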

[1] = dose: 100.0 mg/kg/injection, schedule: Q04DX003 (ip), vehicle: Klucel (hydroxypropylcellulose) (HPC)
[2] = dose: 100.0 mg/kg/injection, schedule: Q01DX009 (ip), vehicle: saline with Tween-80
[3] = dose: 100.0 mg/kg/injection, schedule: Q04DX003 (ip), vehicle: saline with Tween-80
[4] = dose: 200.0 mg/kg/injection, schedule: Q01DX009 (ip), vehicle: saline with Tween-80
[5] = dose: 200.0 mg/kg/injection, schedule: Q04DX003 (ip), vehicle: saline with Tween-80
[6] = dose: 400.0 mg/kg/injection, schedule: Q01DX009 (ip), vehicle: saline with Tween-80
[7] = dose: 400.0 mg/kg/injection, schedule: Q04DX003 (ip), vehicle: saline with Tween-80
[8] = dose: 100.0 mg/kg/injection, schedule: Q01DX009 (ip), vehicle: Klucel (hydroxypropylcellulose) (HPC)
[9] = dose: 200.0 mg/kg/injection, schedule: Q01DX009 (ip), vehicle: Klucel (hydroxypropylcellulose) (HPC)
[10] = dose: 200.0 mg/kg/injection, schedule: Q04DX003 (ip), vehicle: Klucel (hydroxypropylcellulose) (HPC)
[11] = dose: 400.0 mg/kg/injection, schedule: Q01DX009 (ip), vehicle: Klucel (hydroxypropylcellulose) (HPC)
[12] = dose: 400.0 mg/kg/injection, schedule: Q04DX003 (ip), vehicle: Klucel (hydroxypropylcellulose) (HPC)
[13] = dose: 50.0 mg/kg/injection, schedule: Q01DX009 (ip), vehicle: saline
[14] = dose: 100.0 mg/kg/injection, schedule: Q01DX009 (ip), vehicle: saline
[15] = dose: 100.0 mg/kg/injection, schedule: Q04DX002 (ip), vehicle: saline
[16] = dose: 200.0 mg/kg/injection, schedule: Q01DX009 (ip), vehicle: saline
[17] = dose: 200.0 mg/kg/injection, schedule: Q04DX002 (ip), vehicle: saline
[18] = dose: 400.0 mg/kg/injection, schedule: Q01DX009 (ip), vehicle: saline

Measured: T/C

CCO/C=C1\SC(=S)N(c2ccc(C(=O)O)cc2)C1=O
inactive: dose: 25.0 mg/kg/injection, schedule: Q01DX009 (ip), vehicle: saline with Tween-80 108 % of control | dose: 50.0 mg/kg/injection, schedule: Q01DX009 (ip), vehicle: saline with Tween-80 100 % of control | dose: 100.0 mg/kg/injection, schedule: Q01DX009 (ip), vehicle: saline sonified 97 % of control | dose: 100.0 mg/kg/injection, schedule: Q04DX003 (ip), vehicle: saline sonified 99 % of control | dose: 200.0 mg/kg/injection, schedule: Q04DX003 (ip), vehicle: saline sonified 102 % of control | dose: 400.0 mg/kg/injection, schedule: Q04DX003 (ip), vehicle: saline sonified 108 % of control

CCN1/C(=C/C=C/c2oc3ccccc3[n+]2CC)Oc2ccccc21
inactive: dose: 0.05 mg/kg/injection, schedule: Q04DX003 (ip), vehicle: Klucel (hydroxypropylcellulose) (HPC) 102 % of control | dose: 0.1 mg/kg/injection, schedule: Q04DX003 (ip), vehicle: Klucel (hydroxypropylcellulose) (HPC) 100 % of control | dose: 0.2 mg/kg/injection, schedule: Q01DX009 (ip), vehicle: saline 104 % of control | dose: 0.2 mg/kg/injection, schedule: Q04DX003 (ip), vehicle: Klucel (hydroxypropylcellulose) (HPC) 98 % of control | dose: 0.2 mg/kg/injection, schedule: Q04DX003 (ip), vehicle: saline 112 % of control | dose: 0.4 mg/kg/injection, schedule: Q01DX009 (ip), vehicle: saline 109 % of control | dose: 0.4 mg/kg/injection, schedule: Q04DX003 (ip), vehicle: Klucel (hydroxypropylcellulose) (HPC) 104 % of control | dose: 0.4 mg/kg/injection, schedule: Q04DX003 (ip), vehicle: saline 94 % of control | dose: 0.5 mg/kg/injection, schedule: Q01DX001 (ip), vehicle: saline 108 % of control | dose: 0.8 mg/kg/injection, schedule: Q01DX009 (ip), vehicle: saline 114 % of control | dose: 0.8 mg/kg/injection, schedule: Q04DX003 (ip), vehicle: saline 100 % of control | dose: 1.0 mg/kg/injection, schedule: Q01DX001 (ip), vehicle: saline 100 % of control | dose: 1.6 mg/kg/injection, schedule: Q04DX003 (ip), vehicle: saline 107 % of control | dose: 37.5 micrograms/kg/injection, schedule: Q01DX009 (ip), vehicle: Klucel (hydroxypropylcellulose) (HPC) 108 % of control | dose: 75.0 micrograms/kg/injection, schedule: Q01DX009 (ip), vehicle: Klucel (hydroxypropylcellulose) (HPC) 98 % of control | dose: 150.0 micrograms/kg/injection, schedule: Q01DX009 (ip), vehicle: Klucel (hydroxypropylcellulose) (HPC) 107 % of control | dose: 300.0 micrograms/kg/injection, schedule: Q01DX009 (ip), vehicle: Klucel (hydroxypropylcellulose) (HPC) 113 % of control

NC(=O)N/N=C1/CCN2CCCc3cccc1c32
inactive: dose: 12.5 mg/kg/injection, schedule: Q01DX009 (ip), vehicle: Klucel (hydroxypropylcellulose) (HPC) 95 % of control | dose: 25.0 mg/kg/injection, schedule: Q01DX009 (ip), vehicle: Klucel (hydroxypropylcellulose) (HPC) 103 % of control | dose: 25.0 mg/kg/injection, schedule: Q04DX003 (ip), vehicle: Klucel (hydroxypropylcellulose) (HPC) 103 % of control | dose: 50.0 mg/kg/injection, schedule: Q01DX009 (ip), vehicle: Klucel (hydroxypropylcellulose) (HPC) 93 % of control | dose: 50.0 mg/kg/injection, schedule: Q04DX003 (ip), vehicle: Klucel (hydroxypropylcellulose) (HPC) 97 % of control | [1] 95 % of control

[O-][n+]1c(CN2CCCCC2)nc2cccc3c2c1-c1ccccc1-3
inactive: [2] 97 % of control | [3] 101 % of control | [4] 100 % of control | [5] 101 % of control | [6] 107 % of control | [7] 100 % of control

Nc1ccc(-c2ccc(N)cc2Br)c(Br)c1
inactive: [2] 99 % of control | [3] 95 % of control | [4] 105 % of control | [5] 97 % of control | [6] 88 % of control | [7] 92 % of control

CN(C)/C=N/NC(=O)C1CC1
inactive: dose: 100.0 mg/kg/injection, schedule: Q04DX003 (ip), vehicle: saline 100 % of control | dose: 200.0 mg/kg/injection, schedule: Q04DX003 (ip), vehicle: saline 97 % of control | dose: 400.0 mg/kg/injection, schedule: Q04DX003 (ip), vehicle: saline 107 % of control

CCOC(=O)c1c(C)[nH]c2ccc(O)cc12
inactive: [8] 92 % of control | [1] 95 % of control | [9] 104 % of control | [10] 100 % of control | [11] 114 % of control | [12] 100 % of control

Cc1ccccc1NC(=O)Nc1ccccc1F
inactive: [8] 99 % of control | [1] 96 % of control | [9] 99 % of control | [10] 103 % of control | [11] 104 % of control | [12] 110 % of control

CCOC(=O)Nc1cc(Cl)c(N)c(NC(=O)OCC)n1
inactive: [2] 94 % of control | [3] 98 % of control | [4] 100 % of control | [5] 93 % of control | [6] 97 % of control | [7] 100 % of control

CC(CN(C)C)C(=O)/C=C/c1ccccc1 (configuration not stated)
inactive: dose: 12.5 mg/kg/injection, schedule: Q01DX009 (ip), vehicle: saline 103 % of control | dose: 25.0 mg/kg/injection, schedule: Q01DX009 (ip), vehicle: saline 104 % of control | [13] 107 % of control

O=C(Cc1ccccc1)NCCO
inactive: [13] 103 % of control | [14] 98 % of control | [15] 109 % of control | [16] 101 % of control | [17] 109 % of control | [18] 97 % of control

COC1OC2COc3ccccc3OC2C(N)C1N(C)c1ccccc1 (configuration not stated)
inactive: dose: 18.75 mg/kg/injection, schedule: Q01DX001 (ip), vehicle: saline with Tween-80 98 % of control | dose: 37.5 mg/kg/injection, schedule: Q01DX001 (ip), vehicle: saline with Tween-80 96 % of control | dose: 75.0 mg/kg/injection, schedule: Q01DX001 (ip), vehicle: saline with Tween-80 93 % of control

Cc1ccc(S(=O)(=O)OCCC2CCCCC2COS(=O)(=O)c2ccc(C)cc2)cc1 (configuration not stated)
inactive: [14] 100 % of control | [1] 100 % of control | [16] 91 % of control | [10] 99 % of control | [18] 96 % of control | [12] 94 % of control

O=N[O-].O=N[O-].O=N[O-].O=N[O-].O=N[O-].O=N[O-].[Ni]
inactive: dose: 25.0 mg/kg/injection, schedule: Q04DX002 (ip), vehicle: saline 106 % of control | dose: 50.0 mg/kg/injection, schedule: Q04DX002 (ip), vehicle: saline 113 % of control | [15] 106 % of control

O=C(CCCCl)N1CCCCC1
inactive: [15] 94 % of control | [17] 98 % of control | dose: 400.0 mg/kg/injection, schedule: Q04DX002 (ip), vehicle: saline 96 % of control

CC1(C)CCC2(C)CC=C3OC(=O)CCC3(C)C2C1 (configuration not stated)
inactive: [2] 92 % of control | [1] 102 % of control | [4] 89 % of control | [10] 98 % of control | [6] 94 % of control | [12] 94 % of control
